Patent publication EP0357495A2, “3'Azido-3'-deoxythymidine (AZT) derivatives active against the AIDS virus” (IRE-CELLTARG S.A., priority 1988, dated 1990)
Where “and” joins values, the source holds several entries; their conditions need not be identical. Equal values may be shown once.

Assays:
cellules MT4 = assay: cytotoxicity on non-infected MT4 cells (MTT method); type: cell-based; conditions: for toxicité (compared with AZT, in words): comparison with AZT
Description: (§1) Les produits (AZT, AZT-5′ hémisuccinyl et AZT 5′-leucyl) à différentes concentrations ont été mis en présence de cellules MT4 (4 X 10⁴ cellules par puits de microtray) infectées ou non avec 100 CCID₅₀ de virus HIV-1 (souche HTLV-IIIB). La CCID₅₀ représente la quantité de virus à rajouter pour obtenir une infection de 50 % des cellules (dose infectieuse de cellules en culture 50).
(§2) Après cinq jours d'incubation à 37°C, le nombre de cellules vivantes a été déterminé par la méthode au MTT, basée sur la réduction par les cellules vivantes du 3′-(4, 5-diméthylthiazol-2-yl)-2,5-diphényltétrazoliumbromide, jaune, en formazan, bleu. L'activité antivirale et la cytotoxicité sont exprimées sous forme de ED₅₀ et de CD₅₀. La CD₅₀ représente la dose qui tue 50 % des cellules non infectées et la ED₅₀ représente la dose qui protège 50 % des cellules de l'infection virale.
(§3) En effet l'AZT entre en compétition avec la thymidine au niveau des enzymes de phosphorylation qui vont le transformer en AZT triphosphate (AZT TP) qui est la forme active du produit. Un excès de thymidine réduit donc très fortement l'activité de l'AZT, ce qui se traduit par une ED₅₀ plus élevée. Par conséquent, si le dérivé de l'AZT doit son activité à la libération d'AZT qui à son tour est phosphorylé en AZT TP, un excès de thymidine aura également pour effet d'élever la ED₅₀ du dérivé. La thymidine étant cytotoxique à la concentration utilisée, il est nécessaire de rajouter de la 2′déoxycytidine pour empêcher cette toxicité.
(§4) Les protocoles expérimentaux sont ceux décrits à l'exemple 9 3.1) et 9 3).

[1] = system: virus HIV-1 (souche HTLV-IIIB); assay: anti-HIV activity in HIV-infected MT4 cells (MTT method); type: cell-based; conditions: for activité (compared with AZT, in words): comparison with AZT
Description: as §1, §2
as §3, with “La même expérience que celle décrite ci-avant (exemple 9.1)) a été réalisée, mais en présence de thymidine 250 µM et de 2′déoxycytidine 500 µM. En” for “En”
as §4

[2] = system: virus MSV Moloney sarcoma virus; assay: in vivo activity in MSV-infected NMRI mice (survival, tumour appearance); set-up: species or system souris NMRI
Description: L'AZT et ses dérivés selon l'invention ont été testés in vivo chez la souris NMRI (souriceaux de 2 jours) infectée par le virus MSV Moloney sarcoma virus). La drogue est adminitrée i.p. pendant 5 jours dans un volume de 25 µl/g de poids corporel. Le virus est inoculé dans la cuisse gauche de l'animal deux heures après la première administration de drogue. Les animaux sont contrôlés tous les jours selon trois critères : survie, apparition de la tumeur et poids (toxicité) pendant 50 jours. Les résultats sont repris au tableau 7 et dans les figures 8 à 11. [formula]
On entend par temps médian de survie le temps où la moitié des souris sont encore vivantes. [formula] Tableau 7

[3] = system: virus HIV-1 (souche HTLV-IIIB); assay: viral antigen assay in HIV-infected human peripheral blood lymphocytes; type: cell-based; conditions: day 14 of culture
From the text: Les lymphocytes ont été extraits d'un concentré plaquettaire par séparation sur gradient de Ficoll et élimination des adhérentes. Après 3 jours de stimulation par la phytohémaglutinine, ils ont été transférés dans un milieu additionné d'interleukine-2 (IL-2) est infectés par le virus HIV-1 (souche HTLV-IIIB). L'AZT et son dérivé 5′ hémisuccinate à différentes concentrations ont été rajoutés aux cellules au moment de l'infection.
Trois jours après l'infection, le milieu a été remplacé par du milieu frais additionné d'IL-2, contenant les produits aux concentrations désirées pour la moitié des cellules, et ne contenant plus de produit pour l'autre moitié. Ensuite, le milieu des cellules a été remplacé à moitié par du milieu frais additionné d'IL-2, contenant ou non les produits aux concentrations désirées, tous les 3 à 4 jours.
La multiplication du virus a été suivie par dosage des antigènes viraux dans les surnageants de culture (Innotest HIV-Organon Teknika).

[4] = system: virus HIV-1 (souche HTLV-IIIB); assay: viral antigen expression in HIV-infected HUT-78 cells (indirect immunofluorescence, laser cytofluorescence); type: cell-based
From the text: Les produits (AZT et AZT-5′ hémisuccinyl) à différentes concentrations ont été mis en présence de cellules HUT-78 infectées par le virus HIV-1 (souche HTLV-IIIB) à une multiplicité d'infection de 0.4. Tous les quatre jours, 3/4 du milieu ont été remplacés par du milieu frais. Après douze jours, l'expression des antigènes viraux a été mesurée par immunofluorescence indirecte à l'aide d'un sérum anti-HIV-I positif, et par cytofluorescence laser, tel que décrit par Pauwels et al. J. Virol. Meth. 16, 171-185 (1987).
Des résultats sont exprimés dans le tableau 3 en ED₅₀ et en pourcentage d'effet protecteur selon la formule : [formula] TABLEAU 3

[5] = in vivo toxicity, intraperitoneal, 5-day-old NMRI mice; set-up: species or system souriceaux NMRI; conditions: AZT, i.p.
Description: L'AZT et son dérivé 5′hémisuccinyl ont été administrés par voie infra-péritonéale à de souriceaux NMRI âgés de 5 jours (100 µl/g de poids corporel). Les animaux ont été contrôlés tous les jours selon 2 critères : survie et poids pendant 25 jours.
Les résultats sont repris au tableau 9. Les souriceaux traités n'ont pas montre de différence significative dans la prise de poids par rapport aux contrôles. Tableau 9

HIV = conditions: patients at AIDS stage, estimate; cited from earlier work
[6] = tableau 6, MT-4, with thymidine(250 µM) + déoxy-cytidine (500 µM)
[7] = tableau 6, MT-4, without thymidine / déoxy-cytidine
[8] = tableau 2, non-infected MT4 cells, 5 days at 37°C, dose that kills 50 % of cells
[9] = tableau 4, MT-4, without thymidine / 2′déoxycytidine
[10] = listed as dérive 5′-valine de l'AZT

Cc1cn([C@H]2C[C@H](N=[N+]=[N-])[C@@H](COC(=O)[C@@H](NC(=O)OC(C)(C)C)C(C)C)O2)c(=O)[nH]c1=O [AZT 5′tBoc valyl, 5′-O-(Boc-L-valyl)-3′-azido-3′-deoxythymidine]
toxicité (compared with AZT, in words) (cellules MT4): moins toxiques que l'AZT | CD₅₀ (cellules MT4; [6]): 358 µM | CD₅₀ (cellules MT4; [7]): 420 µM | activité (compared with AZT, in words) [1]: activités comparables | ED₅₀ [1, 6]: 11.002 µM | SI [1, 6]: 33 | ED₅₀ [1, 7]: 0.0731 µM | SI [1, 7]: 5740

Cc1cn([C@H]2C[C@H](N=[N+]=[N-])[C@@H](CO)O2)c(=O)[nH]c1=O [AZT, 3′azido-3′déoxythymidine, reference compound]
% ILS ([2]; AZT 5 mg/kg/jour i.p. 5 days): 26.8% | % ITL ([2]; AZT 5 mg/kg/jour i.p. 5 days): 62.8% | Temps moyen d'apparition de la tumeur ([2]; AZT 5 mg/kg/jour i.p. 5 days): 6.5 jours | Temps moyen de survie ([2]; AZT 5 mg/kg/jour i.p. 5 days): 11.3 jours | Temps médian d'apparition de la tumeur ([2]; AZT 5 mg/kg/jour i.p. 5 days): 7.3 jours | Temps médian de survie ([2]; AZT 5 mg/kg/jour i.p. 5 days): 11.6 jours | % ILS ([2]; AZT 25 mg/kg/jour i.p. 5 days): 74.8% | % ITL ([2]; AZT 25 mg/kg/jour i.p. 5 days): 190% | Temps moyen de survie ([2]; AZT 25 mg/kg/jour i.p. 5 days): >19.8 jours | Temps médian d'apparition de la tumeur ([2]; AZT 25 mg/kg/jour i.p. 5 days): 13 jours | Temps médian de survie ([2]; AZT 25 mg/kg/jour i.p. 5 days): 16 jours | % ILS ([2]; AZT 125 mg/kg/jour i.p. 5 days): 74.8% | % ITL ([2]; AZT 125 mg/kg/jour i.p. 5 days): 137% | Temps moyen d'apparition de la tumeur ([2]; AZT 125 mg/kg/jour i.p. 5 days): 10.2 jours | Temps moyen de survie ([2]; AZT 125 mg/kg/jour i.p. 5 days): >23.3 jours | Temps médian d'apparition de la tumeur ([2]; AZT 125 mg/kg/jour i.p. 5 days): 10.6 jours | Temps médian de survie ([2]; AZT 125 mg/kg/jour i.p. 5 days): 16 jours | ED₅₀ ([3]; durée d'administration 3 jours): 0.03 µM | ED₅₀ ([3]; durée d'administration 14 jours): 0.023 µM | CD₅₀ (cellules MT4; [8]): 15.8 µM and 14.2 µM | CD₅₀ (cellules MT4; [9]): 5.06 µM | CD₅₀ (cellules MT4; [7]): 5,06 µM | Pourcentage d'effet protecteur ([4]; HUT-78, day 12, concentration 0.2 µM): 36% | Pourcentage d'effet protecteur ([4]; HUT-78, day 12, concentration 1 µM): 45% | Pourcentage d'effet protecteur ([4]; HUT-78, day 12, concentration 5 µM): 65% | ED₅₀ ([4]; HUT-78 cells, multiplicity of infection 0.4, day 12): ED₅₀ AZT = 2 µM | indice de sélectivité ([1]; de l'ordre de): ~6000 | ED₅₀ [1, 9]: 0,0018 µM | SI [1, 9]: 2780 | ED₅₀ [1, 7]: 0.0018 µM | SI [1, 7]: 2780 | Survivants au jour 25 ([5]; dose 1 g/kg poids corporel (équivalent AZT 1)): 0% | Survivants au jour 25 ([5]; dose 2 g/kg poids corporel (équivalent AZT 2)): 0% | augmentation du temps de survie des patients traités (HIV): ~18 mois

CC(=O)N[C@@H](CC(=O)OC[C@H]1O[C@@H](n2cc(C)c(=O)[nH]c2=O)C[C@@H]1N=[N+]=[N-])C(=O)O [AZT-5′hémiaspartyl (isomère majeur), 5′-O-(N-acétyl-L-hemiaspartyl)-3′-azido-3′ déoxythymidine]
toxicité (compared with AZT, in words) (cellules MT4): moins toxiques que l'AZT | CD₅₀ (cellules MT4; [6]): 74.83 µM | CD₅₀ (cellules MT4; [7]): 65.06 µM | activité (compared with AZT, in words) [1]: activités comparables | indice de sélectivité (in words) ([1]; comparison with the hémisuccinyl derivative): comparable à celui du dérivé hémisuccinyl | ED₅₀ [1, 6]: 4.000 µM | SI [1, 6]: 19 | ED₅₀ [1, 7]: 0.0161 µM | SI [1, 7]: 4046

Cc1cn([C@H]2C[C@H](N=[N+]=[N-])[C@@H](COC(=O)[C@@H](N)CC(C)C)O2)c(=O)[nH]c1=O [AZT-5′leucyl, 5′O-(L-leucyl)-3′-azido-3′déoxythymidine]
CD₅₀ (cellules MT4; [8]): 25.4 µM | ED₅₀ ([1]; tableau 2, MT4 cells infected with 100 CCID₅₀ HIV-1, 5 days at 37°C, dose that protects 50 % of cells): .005 µM | SI ([1]; tableau 2, indice de sélectivité = CD₅₀ sur ED₅₀, MT4 cells): 5080 | SI dérivé/SI AZT ([1]; tableau 2, ratio within the same experiment, MT4 cells): 2.1

Cc1cn([C@H]2C[C@H](N=[N+]=[N-])[C@@H](COC(=O)[C@@H](N)C(C)C)O2)c(=O)[nH]c1=O [AZT 5′valyl, 5′-O-(L-valyl)-3′-azido-3′-deoxythymidine]
toxicité (compared with AZT, in words) (cellules MT4; listed as AZT-5′valine): comparable à celle de ce dernier | toxicité (compared with AZT, in words) (cellules MT4; [10]): comparable à celle de l'AZT | CD₅₀ (cellules MT4; [6]): 38.16 µM | CD₅₀ (cellules MT4; [7]): 3.65 µM | activité (compared with AZT, in words) ([1]; listed as AZT-5′valine): deux foix plus élevée que celle de l'AZT | activité (compared with AZT, in words) [1, 10]: plus actif que l'AZT | ED₅₀ [1, 6]: 0.0987 µM | SI [1, 6]: 386 | ED₅₀ [1, 7]: 0.0007 µM | SI [1, 7]: 5083
